Assay results: PubChem BioAssay (NCI)
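Interpolation was linear, between the two tested concentrations surrounding the appropriate level; five concentrations were tested over 48 hours in 96-well plates. Abbreviation: GI50, concentration required for 50% inhibition of growth. TGI: concentration producing complete growth inhibition.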

Key:
Experiment in all cases: NCI anticancer screen, dose series, 48 h
NCI-H226 lung = system: NCI-H226 lung
NCI-H23 lung = system: NCI-H23 lung
NCI-H460 lung = system: NCI-H460 lung
NCI-H522 lung = system: NCI-H522 lung
NCI/ADR-RES ovarian = system: NCI/ADR-RES ovarian
OVCAR-3 ovarian = system: OVCAR-3 ovarian
OVCAR-4 ovarian = system: OVCAR-4 ovarian
OVCAR-5 ovarian = system: OVCAR-5 ovarian
OVCAR-8 ovarian = system: OVCAR-8 ovarian
PC-3 prostate = system: PC-3 prostate
RPMI-8226 leukemia = system: RPMI-8226 leukemia
RXF 393 renal = system: RXF 393 renal
SF-268 CNS = system: SF-268 CNS
SF-295 CNS = system: SF-295 CNS
SF-539 CNS = system: SF-539 CNS
SK-MEL-2 melanoma = system: SK-MEL-2 melanoma
SK-MEL-28 melanoma = system: SK-MEL-28 melanoma
SK-MEL-5 melanoma = system: SK-MEL-5 melanoma
SK-OV-3 ovarian = system: SK-OV-3 ovarian
SN12C renal = system: SN12C renal
SNB-19 CNS = system: SNB-19 CNS
SNB-75 CNS = system: SNB-75 CNS
SR leukemia = system: SR leukemia
SW-620 colon = system: SW-620 colon
T-47D breast = system: T-47D breast
TK-10 renal = system: TK-10 renal
U251 CNS = system: U251 CNS
UACC-257 melanoma = system: UACC-257 melanoma
UACC-62 melanoma = system: UACC-62 melanoma
UO-31 renal = system: UO-31 renal

`O=c1cc(-c2ccccc2)oc2cc(OCCCC[P+](c3ccccc3)(c3ccccc3)c3ccccc3)cc(O)c12` gave a TGI (NCI-H226 lung) of 4200 nM, a GI50 (NCI-H23 lung) of 1100 nM and a TGI (NCI-H23 lung) of 2740 nM. It also gave a GI50 (NCI-H460 lung) of 509 nM, a TGI (NCI-H460 lung) of 1810 nM and a GI50 (NCI-H522 lung) of 789 nM. The TGI (NCI-H522 lung) was 2540 nM, the GI50 (NCI/ADR-RES ovarian) was 3290 nM and the TGI (NCI/ADR-RES ovarian) was over 100000 nM. It also gave a GI50 (OVCAR-3 ovarian) of 526 nM, a TGI (OVCAR-3 ovarian) of 2220 nM and a GI50 (OVCAR-4 ovarian) of 549 nM. The TGI (OVCAR-4 ovarian) was 6760 nM, the GI50 (OVCAR-5 ovarian) was 1580 nM and the TGI (OVCAR-5 ovarian) was 5110 nM. For the same compound, the GI50 (OVCAR-8 ovarian) was 1040 nM, the TGI (OVCAR-8 ovarian) was 6100 nM and the GI50 (PC-3 prostate) was 899 nM. For the same compound, the TGI (PC-3 prostate) was 2700 nM, the GI50 (RPMI-8226 leukemia) was 303 nM and the TGI (RPMI-8226 leukemia) was 1820 nM. For the same compound, the GI50 (RXF 393 renal) was 707 nM, the TGI (RXF 393 renal) was 2150 nM and the GI50 (SF-268 CNS) was 1290 nM. It also gave a TGI (SF-268 CNS) of 3560 nM, a GI50 (SF-295 CNS) of 1410 nM and a TGI (SF-295 CNS) of 2760 nM. The GI50 (SF-539 CNS) was 892 nM, the TGI (SF-539 CNS) was 2150 nM and the GI50 (SK-MEL-2 melanoma) was 238 nM. It also gave a TGI (SK-MEL-2 melanoma) of 603 nM, a GI50 (SK-MEL-28 melanoma) of 601 nM and a TGI (SK-MEL-28 melanoma) of 1830 nM. For the same compound, the GI50 (SK-MEL-5 melanoma) was 276 nM, the TGI (SK-MEL-5 melanoma) was 693 nM and the GI50 (SK-OV-3 ovarian) was 728 nM. The TGI (SK-OV-3 ovarian) was 1920 nM, the GI50 (SN12C renal) was 603 nM and the TGI (SN12C renal) was 1660 nM. For the same compound, the GI50 (SNB-19 CNS) was 410 nM, the TGI (SNB-19 CNS) was 1420 nM and the GI50 (SNB-75 CNS) was 419 nM. It also gave a TGI (SNB-75 CNS) of 1680 nM, a GI50 (SR leukemia) of 834 nM and a TGI (SR leukemia) of over 100000 nM. The GI50 (SW-620 colon) was 997 nM, the TGI (SW-620 colon) was 2670 nM and the GI50 (T-47D breast) was 273 nM. It also gave a TGI (T-47D breast) of 2770 nM, a GI50 (TK-10 renal) of 903 nM and a TGI (TK-10 renal) of 3270 nM. The GI50 (U251 CNS) was 716 nM, the TGI (U251 CNS) was 2160 nM and the GI50 (UACC-257 melanoma) was 548 nM. It also gave a TGI (UACC-257 melanoma) of 1900 nM, a GI50 (UACC-62 melanoma) of 573 nM and a TGI (UACC-62 melanoma) of 1560 nM. It also gave a GI50 (UO-31 renal) of 1390 nM and a TGI (UO-31 renal) of 2890 nM.
